Data reported in US10414756B2, “2-(2,4,5-substituted aniline) pyrimidine derivative, pharmaceutical composition and use thereof” (Nanjing Diansu Biological Technology Co., Ltd., priority 2014, dated 2019).
Counter-ions that a name gives are not always drawn.

Tests used:
[1] = Test 4: stability of compounds in human liver microsomes; format: in vitro ADME; details: for Remaining Percentage (%) 0 h / Remaining Percentage (%) 8 h / Remaining Percentage (%) 16 h / Remaining Percentage (%) 24 h / Remaining Percentage (%) 32 h / Remaining Percentage (%) 48 h: 0.5 mg/mL liver microsomal protein, 1 mM NADPH, 37° C., N=1; for Half-time period: human liver microsomes
Experimental: Test 4: Evaluation of Stability of Compounds in Human Liver Microsomes
Assay system: the metabolic stability of the compounds in the present invention were determined by employing a mixture of male and female liver microsomes (Jiangyin Qi Biotechnology Co., Ltd.) and 1 mM NADPH. Samples were analyzed by a mass spectrometer. HRMS was used to determine the peak area response ratio (corresponding to the peak area of the compound to be tested or control compound being divided by the peak area of the internal standard) without running the standard curve. In order to detect all possible metabolites, HRMS scan were performed within an appropriate m/z range.
Determination condition: the assay was performed with one time incubation (N=1). The compounds to be tested were incubated at 37° C. in a PBS buffer containing 0.5 mg/mL liver microsomal protein.
Determination quality control: compare the testosterone of control compound in parallel to determine the enzyme […] of (liver) microsomes. After the last time point, […]
Aqueous phase (A): 90% water, 10% buffer;
Organic phase (B): 90% acetonitrile, 10% buffer;
Autosampler: injection volume 10 μL

[2] = test system: NCI-H1975; assay: Test 5: effect in nude mice implanted with NCI-H1975; format: in vivo
Experimental: Test 5: Effect Assess in Nude Mice Implanted with NCI-H1975
To nude mice implanted with NCI-H1975, was administered 3.6 μgig (compound/nude mice weight) once a day in one group, and 7.2 μgig once a day in another group, and the tumor size was observed after continuous administration for 10 days.

[3] = Effect Embodiment 2: rat pharmacokinetics after intragastric administration; format: in vivo, SD rats; details: rats, 25 mg/kg intragastric, n=6, compared with AZD9291
Text: 2.1. Grouping of Experimental Animals:
24 SD rats were half male and half female, randomly divided into 4 groups, 6 rats in each group, half male and half female
1-3 male, NO. […] 7-9 male, NO. 10-12 female
2.2. Experimental Reagents and Administration Modes
Intragastric Administration:
2. grouping and weighing rats;
4. the blood samples were centrifuged, supernatant was extracted, treated, and analyzed.

[4] = Dose 3.6 μg/g once a day for 10 days
[5] = Dose 7.2 μg/g once a day for 10 days

| Structure (SMILES) | Remaining Percentage (%) 0 h [1] | Remaining Percentage (%) 8 h [1] | Remaining Percentage (%) 16 h [1] | Remaining Percentage (%) 24 h [1] | Remaining Percentage (%) 32 h [1] | Remaining Percentage (%) 48 h [1] | Half-time period [1] | tumor size 11th d [2, 4] | tumor size 0 d ([2]; Dose 3.6 μg/g once a day) | tumor size 11th d [2, 5] | tumor size 0 d ([2]; Dose 7.2 μg/g once a day) | pharmacokinetics (mean drug concentration-time curve, FIG. 2) [3] | inhibitory effect on tumor growth ([2]; low dose (3.6 μg/g)) |
| --- | --- | --- | --- | --- | --- | --- | --- | --- | --- | --- | --- | --- | --- |
| [2H]C([2H])([2H])n1cc(-c2ccnc(Nc3cc(NC(=O)C=C)c(N(C)CCN(C)C)cc3OC)n2)c2ccccc21 [Embodiment 3B, N-(2-{2-dimethylaminoethyl-methylamino}-4-methoxy-5-{[4-(1-D3-methyl)indol-3-yl)pyrimidin-2-yl]amino}phenyl)-2-acrylamide mesylate] | 100% | 90% | 82% | 73% | 64% | 55% | >48 h | 9 mm | 14 mm | 7 mm | 13 mm | better pharmacokinetics |  |
| [2H]C([2H])([2H])N(CCN(C)c1cc(OC)c(Nc2nccc(-c3cn(C)c4ccccc34)n2)cc1NC(=O)C=C)C([2H])([2H])[2H] [Embodiment 2B, N-(2-{2-di(D3-methyl)aminoethyl-methylamino}-4-methoxy-5-{[4-(1-methylindol-3-yl)pyrimidin-2-yl]amino}phenyl)-2-acrylamide mesylate] | 100% | 97% | 90% | 82% | 75% | 81% | >48 h | 5 mm | 12 mm | 4 mm | 12 mm |  |  |
| [2H]C([2H])([2H])N(CCN(C)c1cc(OC)c(Nc2nccc(-c3cn(C([2H])([2H])[2H])c4ccccc34)n2)cc1NC(=O)C=C)C([2H])([2H])[2H] [Embodiment 6B, N-(2-{2-di(D3-methyl)aminoethyl-methylamino}-4-methoxy-5-{[4-(1-(D3-methyl)indol-3-yl)pyrimidin-2-yl]amino}phenyl)-2-acrylamide mesylate] | 100% | 92% | 80% | 76% | 65% | 58% | >48 h |  |  |  |  |  |  |
| C=CC(=O)Nc1cc(Nc2nccc(-c3cn(C)c4ccccc34)n2)c(OC)cc1N(C)CCN(C)C.CS(=O)(=O)O [AZD9291, reference compound] | 100% | 82% | 61% | 48% | 34% | 14% | 24 h | 13 mm | 13 mm | 8 mm | 12 mm |  | very low inhibitory effect on tumor growth |

Second part, led by results:

| Remaining Percentage (%) 0 h [1] | Remaining Percentage (%) 8 h [1] | Remaining Percentage (%) 16 h [1] | Remaining Percentage (%) 24 h [1] | Remaining Percentage (%) 32 h [1] | Remaining Percentage (%) 48 h [1] | Half-time period [1] | Structure (SMILES) | tumor size 11th d [2, 4] | tumor size 0 d ([2]; Dose 3.6 μg/g once a day) | tumor size 11th d [2, 5] | tumor size 0 d ([2]; Dose 7.2 μg/g once a day) | pharmacokinetics (mean drug concentration-time curve, FIG. 2) [3] | inhibitory effect on tumor growth ([2]; low dose (3.6 μg/g)) |
| --- | --- | --- | --- | --- | --- | --- | --- | --- | --- | --- | --- | --- | --- |
| 100% | 89% | 81% | 72% | 63% | 51% | >48 h | [2H]C([2H])([2H])Oc1cc(N(C)CCN(C)C)c(NC(=O)C=C)cc1Nc1nccc(-c2cn(C)c3ccccc23)n1 [Embodiment 4B, N-(2-{2-dimethylaminoethyl-methylamino}-4-(D3-methoxy)-5-{[4-(1-methylindol-3-yl)pyrimidin-2-yl]amino}phenyl)-2-acrylamide mesylate] | 8 mm | 13 mm | 6 mm | 11 mm |  |  |
| 100% | 91% | 84% | 75% | 69% | 66% | >48 h | [2H]C([2H])([2H])N(CCN(C)C)c1cc(OC)c(Nc2nccc(-c3cn(C)c4ccccc34)n2)cc1NC(=O)C=C [Embodiment 5B, N-(2-{2-dimethylaminoethyl-(D3-methyl)amino}-4-methoxy-5-{[4-(1-methylindol-3-yl)pyrimidin-2-yl]amino}phenyl)-2-acrylamide mesylate] | 10 mm | 11 mm | 8 mm | 14 mm |  |  |
| 100% | 93% | 86% | 77% | 70% | 67% | >48 h | [2H]C([2H])([2H])N(C)CCN(C)c1cc(OC)c(Nc2nccc(-c3cn(C)c4ccccc34)n2)cc1NC(=O)C=C [Embodiment 1B, N-(2-{2-[methyl(D3-methyl)amino]ethyl-methylamino}-4-methoxy-5-{[4-(1-methylindol-3-yl)pyrimidin-2-yl]amino}phenyl)-2-acrylamide mesylate] | 6 mm | 12 mm | 5 mm | 13 mm |  |  |
